ChEMBL document CHEMBL1149714 (2007)
Values after ≈ are worked out from the molar mass of the structure shown.

Legend:
Type in all cases: functional
Moraxella catarrhalis = assay: Antibacterial activity against Moraxella catarrhalis ATCC 43617 after 20 hrs by agar dilution method; details: ATCC 43617, 20 h
Pseudomonas aeruginosa [1] = assay: Antibacterial activity against AmpC hyperproducing Pseudomonas aeruginosa SR24-12 after 20 hrs by agar dilution method
Pseudomonas aeruginosa [2] = assay: Antibacterial activity against Pseudomonas aeruginosa SR24 after 20 hrs by agar dilution method
Pseudomonas aeruginosa [3] = assay: Antibacterial activity against Pseudomonas aeruginosa SR-5393 after 20 hrs by agar dilution method
Haemophilus influenzae [4] = assay: Antibacterial activity against beta-lactamase negative ampicillin resistant Haemophilus influenzae SR-11435 after 20 hrs by agar dilution method
Pseudomonas aeruginosa [5] = assay: Antibacterial activity against Imipenem resistant Pseudomonas aeruginosa SR-6554 after 20 hrs by agar dilution method
Staphylococcus aureus = assay: Antibacterial activity against […] Staphylococcus aureus SMITH after 20 hrs by agar dilution method
Escherichia coli [6] = assay: Antibacterial activity against Toho 2 (ESBL) producing Escherichia coli SR-21003 after 20 hrs by agar dilution method
Streptococcus pneumoniae = assay: Antibacterial activity against penicillin resistant Streptococcus pneumoniae SR-16675 after 20 hrs by agar dilution method
Escherichia coli [7] = assay: Antibacterial activity against Escherichia coli NIHJJC2 after 20 hrs by agar dilution method
Haemophilus influenzae [8] = assay: Antibacterial activity against Haemophilus influenzae ATCC 49766 after 20 hrs by agar dilution method; details: ATCC 49766, 20 h
Enterobacter cloacae [9] = assay: Antibacterial activity against AmpC producing Enterobacter cloacae SR-4321 after 20 hrs by agar dilution method
Enterobacter cloacae [10] = assay: Antibacterial activity against Enterobacter cloacae ATCC 13047 after 20 hrs by agar dilution method; details: ATCC 13047, 20 h

Row | Structure (SMILES) | MIC (Moraxella catarrhalis) [µg/mL] | MIC (Pseudomonas aeruginosa [1]) [µg/mL] | MIC (Pseudomonas aeruginosa [2]) [µg/mL] | MIC (Pseudomonas aeruginosa [3]) [µg/mL] | MIC (Haemophilus influenzae [4]) [µg/mL] | MIC (Pseudomonas aeruginosa [5]) [µg/mL] | MIC (Staphylococcus aureus) [µg/mL] | MIC (Escherichia coli [6]) [µg/mL] | MIC (Streptococcus pneumoniae) [µg/mL] | MIC (Escherichia coli [7]) [µg/mL] | MIC (Haemophilus influenzae [8]) [µg/mL] | MIC (Enterobacter cloacae [9]) [µg/mL] | MIC (Enterobacter cloacae [10]) [µg/mL]
1 | CO/N=C(\C(=O)N[C@@H]1C(=O)N2C(C(=O)[O-])=C(C[N+]3(C)CCCC3)CS[C@H]12)c1csc(N)n1 | 0.5 (≈ 1.04 µM) | 32 (≈ 66.6 µM) | 0.5 (≈ 1.04 µM) | 4 (≈ 8.32 µM) | 0.5 (≈ 1.04 µM) | 64 (≈ 133 µM) | 2 (≈ 4.16 µM) | 4 (≈ 8.32 µM) | 2 (≈ 4.16 µM) | 0.063 (≈ 0.131 µM) | 0.032 (≈ 0.0666 µM) | – | –
2 | CNCCCn1ccc2c1ccc[n+]2CC1=C(C(=O)[O-])N2C(=O)[C@@H](NC(=O)/C(=N\OCC(=O)O)c3nc(N)sc3Cl)[C@H]2SC1 | 0.016 (≈ 0.0241 µM) | 8 (≈ 12.1 µM) | 0.5 (≈ 0.754 µM) | 2 (≈ 3.02 µM) | 0.125 (≈ 0.188 µM) | 8 (≈ 12.1 µM) | 2 (≈ 3.02 µM) | 2 (≈ 3.02 µM) | 2 (≈ 3.02 µM) | 0.25 (≈ 0.377 µM) | 0.032 (≈ 0.0483 µM) | 8 (≈ 12.1 µM) | 0.25 (≈ 0.377 µM)
3 | CNCCCn1ccc2c1ccc[n+]2CC1=C(C(=O)[O-])N2C(=O)[C@@H](NC(=O)/C(=N\O[C@@H](C)C(=O)O)c3csc(N)n3)[C@H]2SC1 | 0.125 (≈ 0.194 µM) | 32 (≈ 49.8 µM) | 0.5 (≈ 0.778 µM) | 2 (≈ 3.11 µM) | 0.063 (≈ 0.098 µM) | 16 (≈ 24.9 µM) | 2 (≈ 3.11 µM) | 1 (≈ 1.56 µM) | 8 (≈ 12.4 µM) | 0.063 (≈ 0.098 µM) | 0.032 (≈ 0.0498 µM) | 16 (≈ 24.9 µM) | 0.25 (≈ 0.389 µM)
4 | CNCCCn1ccc2c1ccc[n+]2CC1=C(C(=O)[O-])N2C(=O)[C@@H](NC(=O)/C(=N\O[C@@H](C)C(=O)O)c3nc(N)sc3F)[C@H]2SC1 | 0.5 (≈ 0.757 µM) | > 128 | 1 (≈ 1.51 µM) | 8 (≈ 12.1 µM) | 0.25 (≈ 0.378 µM) | 128 (≈ 194 µM) | 2 (≈ 3.03 µM) | 16 (≈ 24.2 µM) | 16 (≈ 24.2 µM) | 0.031 (≈ 0.0469 µM) | 0.063 (≈ 0.0954 µM) | > 128 | 1 (≈ 1.51 µM)
5 | CNCCCn1ccc2c1ccc[n+]2CC1=C(C(=O)[O-])N2C(=O)[C@@H](NC(=O)/C(=N\O[C@@H](C)C(=O)O)c3nc(N)sc3Br)[C@H]2SC1 | 0.016 (≈ 0.0222 µM) | 4 (≈ 5.54 µM) | 1 (≈ 1.39 µM) | 4 (≈ 5.54 µM) | 0.125 (≈ 0.173 µM) | 8 (≈ 11.1 µM) | 1 (≈ 1.39 µM) | 4 (≈ 5.54 µM) | 4 (≈ 5.54 µM) | 0.5 (≈ 0.693 µM) | 0.063 (≈ 0.0873 µM) | 4 (≈ 5.54 µM) | 1 (≈ 1.39 µM)
6 | CNCCCn1ccc2c1ccc[n+]2CC1=C(C(=O)[O-])N2C(=O)[C@@H](NC(=O)/C(=N\O[C@H](C(=O)O)C(C)C)c3nc(N)sc3Cl)[C@H]2SC1 | 0.016 (≈ 0.0227 µM) | 8 (≈ 11.3 µM) | 2 (≈ 2.84 µM) | 8 (≈ 11.3 µM) | 0.063 (≈ 0.0893 µM) | 16 (≈ 22.7 µM) | 1 (≈ 1.42 µM) | 8 (≈ 11.3 µM) | 4 (≈ 5.67 µM) | 2 (≈ 2.84 µM) | 0.032 (≈ 0.0454 µM) | 8 (≈ 11.3 µM) | 4 (≈ 5.67 µM)
7 | CNCCCn1ccc2c1ccc[n+]2CC1=C(C(=O)[O-])N2C(=O)[C@@H](NC(=O)/C(=N\O[C@@H](CO)C(=O)O)c3nc(N)sc3Cl)[C@H]2SC1 | 0.032 (≈ 0.0462 µM) | 4 (≈ 5.77 µM) | 1 (≈ 1.44 µM) | 4 (≈ 5.77 µM) | 0.125 (≈ 0.18 µM) | 16 (≈ 23.1 µM) | 2 (≈ 2.89 µM) | 2 (≈ 2.89 µM) | 8 (≈ 11.5 µM) | 0.25 (≈ 0.361 µM) | 0.063 (≈ 0.0909 µM) | 2 (≈ 2.89 µM) | 0.25 (≈ 0.361 µM)
8 | C=C(O/N=C(\C(=O)N[C@@H]1C(=O)N2C(C(=O)[O-])=C(C[n+]3cccc4c3ccn4CCCNC)CS[C@H]12)c1nc(N)sc1Cl)C(=O)O | 0.016 (≈ 0.0237 µM) | 8 (≈ 11.8 µM) | 2 (≈ 2.96 µM) | 8 (≈ 11.8 µM) | 0.063 (≈ 0.0933 µM) | 32 (≈ 47.4 µM) | 0.5 (≈ 0.741 µM) | 1 (≈ 1.48 µM) | 2 (≈ 2.96 µM) | 0.25 (≈ 0.37 µM) | 0.032 (≈ 0.0474 µM) | 1 (≈ 1.48 µM) | 0.25 (≈ 0.37 µM)
9 | CNCCCn1cnc2c1ccc[n+]2CC1=C(C(=O)[O-])N2C(=O)[C@@H](NC(=O)/C(=N\OC(C)(C)C(=O)O)c3csc(N)n3)[C@H]2SC1 | – | > 128 | 1 (≈ 1.52 µM) | 4 (≈ 6.08 µM) | – | 128 (≈ 195 µM) | – | 2 (≈ 3.04 µM) | – | 0.5 (≈ 0.76 µM) | – | 128 (≈ 195 µM) | 4 (≈ 6.08 µM)
